Test results reported in patent publication US20220175777A1, “Inhibitors of Multidrug Resistance Transporter P-Glycoprotein” (Southern Methodist University, priority 2014, published 2022).

Experiments:
[1] = biological target: T1, Cysteineless Mouse MDR3 P-glycoprotein (Mus musculus, UniProt P21447, C1070A/C1121A/C1223A/C133A/C427A/C638A/C669A/C713A/C952A); assay: ATP hydrolysis by purified P-glycoprotein, basal and verapamil-stimulated; format: biochemical; conditions: for Stimulated ATPase (% of DMSO): in the presence of verapamil; for Stimulated ATPase (% of DMSO) / Basal ATPase (% of DMSO): ± standard deviation
T1 construct: made in house; host or cells: Pichia pastoris
Source text: The efficacy of molecules identified using in silico methods to function as potential inhibitors of P-glycoprotein was initially tested with regard to their capability to inhibit ATP hydrolysis by purified P-glycoprotein. For this purpose, a well-established activity assay for ATP hydrolyzing enzymes that uses the oxidation of NADH to NAD+ through coupling the reactions of pyruvate kinase and lactate dehydrogenase to the hydrolysis of ATP was adapted to medium throughput conditions on 96 well plates. […] In this set-up, the effects of potential small molecule inhibitors on the ATP hydrolysis activity of P-glycoprotein were tested in duplicate or triplicate and were repeated at least two times using different enzyme preparations.
The P-glycoprotein used in these assays was a close relative of the human P-glycoprotein that is found in mice. A mutant version of the mouse P-glycoprotein where all intrinsic cysteine amino acids had been replaced by alanine residues was recombinantly expressed in the yeast Pichia pastoris and used for these initial tests. […] Prior to testing the ATP-hydrolysis activity, P-glycoprotein was incubated with phosphatidyl choline for stabilization of the enzyme during the assay.
Different concentrations of the to-be-tested small molecules were added and pre-incubated at 37° C. The ATP hydrolysis reaction was then started by adding equal volume of double concentrated ATPase cocktail. The final ATP concentration in the reaction was 2 mM. The reaction was allowed to proceed for 20 minutes, the rate of ATP hydrolysis was calculated using the molar extinction coefficient of NADH, and the one-to-one relationship of ATP hydrolyzed and NADH oxidized.
Evaluation of mode of inhibition of P-glycoprotein by Group 1 and Group 2 variants of compound 29. To assess the mode of inhibition of P-gp by the novel variants of P-gp inhibitor 29, ATP hydrolysis by P-gp was evaluated in the presence or absence of the variants. […] Murine P-gp (MDR3) expressed in Pichia pastoris that had all naturally occurring cysteines replaced with alanine, was used^45, 46. It is widely assumed that the ATP hydrolytic rate of P-gp is stimulated in the presence of transport substrates when compared to ATP hydrolysis in the absence of transport substrates. Assays comparing these rates can therefore be useful not only in identifying inhibitors of P-gp catalyzed ATP hydrolysis, but also to potentially infer whether a compound might be a transport substrate if basal ATPase rates are stimulated by the addition of a compound.

P-gp = P-gp (Homo sapiens, UniProt P08183); conditions: for Transport substrate for P-gp: not told
Procedure: Stimulation of basal ATPase by 29-variants was used as an indicator that a compound may be a P-gp transport substrate. Effects on stimulated P-gp ATPase activity indicated whether a compound directly interfered with ATP usage by the protein (***, p<0.001; **, p<0.01; *, p<0.1; NS, not significant). Quantitative cellular accumulation of 29-variants was performed using LC-MS/MS and is presented as a ratio of the cellular amounts of 29-variants in the presence of P-gp inhibitor, tariquidar, divided by amounts accumulated in its absence. […] Binding of an ATP analog, SL-ATP, to P-gp was used to determine whether ATP binding to P-gp was affected by the 29-variants. Values+/−standard deviations are shown for at least three different P-gp preparations and three independent SL-ATP titration experiments. The values for SL-ATP binding in the presence of 29 were taken directly from Brewer et al. (2014).
Intracellular accumulation of compound 29 variants. Cell accumulation assays for each of the 29 variants were performed as in reference^28 to more directly assess whether the compounds were indeed transport substrates for P-gp.

[2] = biological target: T1, Cysteineless Mouse MDR3 P-glycoprotein; assay: SL-ATP binding to P-gp by ESR spectroscopy; conditions: SL-ATP titration in presence of compound
Source text: Determination of the possible mode of ATP hydrolysis inhibition by the identified P-glycoprotein inhibitors. The mode of hydrolysis of ATP by P-glycoprotein was investigated by measuring the maximal binding stoichiometry and binding affinity of an analog of ATP, SL-ATP, and by Electron Spin Resonance (ESR) spectroscopy, similar to in both the presence and absence of the identified inhibitors.
The high-field signal of the freely mobile, unbound SL-ATP is compared and is used to calculate the amount of ATP-analog bound to P-glycoprotein. Binding of SL-ATP in the absence of any P-glycoprotein inhibitor saturated at about 2 mol of SL-nucleotide bounds per mol of P-glycoprotein.
FIGS. 2A-2D are plots showing the effects of P-glycoprotein ATP hydrolysis inhibitors on nucleotide binding. Between 30 and 50 microM Pgp were incubated with 50 microM inhibitor compound. Increasing amounts of SL-ATP were added. The ESR signal of the free SL-ATP in the presence of P-glycoprotein and inhibitor was compared to that in the absence of P-glycoprotein. The graphs represent at least 3 individual studies each using 3 to 5 different P-glycoprotein preparations.

[3] = biological target: Normal Human MDR1 P-glycoprotein (Homo sapiens, UniProt P08183); assay: ATP hydrolysis by human P-gp assembled into membrane nanodiscs; format: biochemical; conditions: human MDR1 P-gp in nanodiscs
Source text: To assess whether the observed discrepancies of compounds stimulating basal P-gp ATPase activity but not being transport substrates of the human pump in the cell culture assessments were due to the fact that these biochemical assays used a cysteineless variant of the mouse MDR3 P-glycoprotein, the experiments were repeated using normal human MDR1 P-gp. In order to stabilize the human protein for the activity assays, the protein was assembled into membrane nanodiscs as described herein.

DU145TXR = assay: Resensitization of DU145TXR to paclitaxel by 29 variants (MTT cell viability); format: cell-based, human; conditions: for Fold vs PTX ÷ 29: compared to parental compound 29
Source text: The Group 1 ChemGen/docking routine produced variants of P-gp inhibitor 29 resensitize a multidrug resistant, P-gp overexpressing prostate cancer cell line to paclitaxel. The mitochondrial reduction potential of cells is often used as an indicator for cell viability using MTT assays^40-42. Using these assays it was observed that the five Group 1 derivatives of 29 predicted through the ChemGen/docking routine and synthesized here, 216, 227, 231, 541 and 551, re-sensitized the P-gp overexpressing prostate cancer cell line, DU145TXR^33, to the chemotherapeutic, paclitaxel (FIG. 9, showing results of assays at concentrations of 3 μM, 5 μM, 7 μM, and 10 μM).
Cytotoxicity of the chemotherapeutic, paclitaxel (PTX) to P-gp overexpressing prostate cancer cells, DU145TXR, was determined in the absence and presence of the ChemGen designed 29-variants, 216, 227, 231, 541 and 551. For each experimental compound IC50 values of PTX alone or in the presence of inhibitors, fold improvement of PTX sensitivity in the presence of inhibitor, and fold improvement of PTX sensitivity by variants compared to parental compound 29 are given.

[4] = without added transport substrate
[5] = 3 μM inhibitor, fold improvement of PTX sensitivity vs PTX alone

Sequence of P-gp (P08183 whole entry): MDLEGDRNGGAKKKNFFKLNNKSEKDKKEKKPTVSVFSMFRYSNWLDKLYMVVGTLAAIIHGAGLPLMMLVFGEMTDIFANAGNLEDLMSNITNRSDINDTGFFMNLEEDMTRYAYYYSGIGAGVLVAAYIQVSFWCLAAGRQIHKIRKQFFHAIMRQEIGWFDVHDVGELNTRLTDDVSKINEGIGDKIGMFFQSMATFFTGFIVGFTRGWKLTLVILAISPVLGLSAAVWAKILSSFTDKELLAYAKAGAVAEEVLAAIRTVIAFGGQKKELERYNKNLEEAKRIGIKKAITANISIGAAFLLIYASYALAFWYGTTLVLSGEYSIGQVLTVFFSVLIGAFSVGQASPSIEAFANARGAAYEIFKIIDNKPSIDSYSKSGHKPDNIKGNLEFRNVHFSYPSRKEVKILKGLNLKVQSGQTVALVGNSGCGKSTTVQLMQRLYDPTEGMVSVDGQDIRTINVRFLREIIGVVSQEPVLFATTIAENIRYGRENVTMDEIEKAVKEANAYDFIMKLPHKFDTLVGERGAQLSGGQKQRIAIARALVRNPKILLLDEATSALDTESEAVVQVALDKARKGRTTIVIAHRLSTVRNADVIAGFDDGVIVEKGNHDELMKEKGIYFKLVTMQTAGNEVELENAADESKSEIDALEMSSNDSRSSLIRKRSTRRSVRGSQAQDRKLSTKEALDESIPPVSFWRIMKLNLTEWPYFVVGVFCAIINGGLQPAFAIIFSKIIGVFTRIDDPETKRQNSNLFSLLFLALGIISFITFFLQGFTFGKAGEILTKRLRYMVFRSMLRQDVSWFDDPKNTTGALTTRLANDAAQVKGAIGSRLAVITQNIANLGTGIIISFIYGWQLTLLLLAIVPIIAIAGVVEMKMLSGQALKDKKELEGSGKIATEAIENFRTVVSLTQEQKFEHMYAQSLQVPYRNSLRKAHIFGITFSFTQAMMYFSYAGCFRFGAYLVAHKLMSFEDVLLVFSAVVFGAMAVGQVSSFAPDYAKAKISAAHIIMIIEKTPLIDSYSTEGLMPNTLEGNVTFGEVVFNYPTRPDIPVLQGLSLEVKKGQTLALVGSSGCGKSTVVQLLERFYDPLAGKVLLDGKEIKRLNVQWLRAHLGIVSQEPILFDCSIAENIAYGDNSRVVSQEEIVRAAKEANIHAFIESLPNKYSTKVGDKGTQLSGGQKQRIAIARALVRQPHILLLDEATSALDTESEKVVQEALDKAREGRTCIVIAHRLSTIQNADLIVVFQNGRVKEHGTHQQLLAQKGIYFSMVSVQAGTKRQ
Sequence of Normal Human MDR1 P-glycoprotein (P08183 whole entry): as above
T1 sequence (P21447 whole entry C133A/C427A/C638A/C669A/C713A/C952A/C1070A/C1121A/C1223A): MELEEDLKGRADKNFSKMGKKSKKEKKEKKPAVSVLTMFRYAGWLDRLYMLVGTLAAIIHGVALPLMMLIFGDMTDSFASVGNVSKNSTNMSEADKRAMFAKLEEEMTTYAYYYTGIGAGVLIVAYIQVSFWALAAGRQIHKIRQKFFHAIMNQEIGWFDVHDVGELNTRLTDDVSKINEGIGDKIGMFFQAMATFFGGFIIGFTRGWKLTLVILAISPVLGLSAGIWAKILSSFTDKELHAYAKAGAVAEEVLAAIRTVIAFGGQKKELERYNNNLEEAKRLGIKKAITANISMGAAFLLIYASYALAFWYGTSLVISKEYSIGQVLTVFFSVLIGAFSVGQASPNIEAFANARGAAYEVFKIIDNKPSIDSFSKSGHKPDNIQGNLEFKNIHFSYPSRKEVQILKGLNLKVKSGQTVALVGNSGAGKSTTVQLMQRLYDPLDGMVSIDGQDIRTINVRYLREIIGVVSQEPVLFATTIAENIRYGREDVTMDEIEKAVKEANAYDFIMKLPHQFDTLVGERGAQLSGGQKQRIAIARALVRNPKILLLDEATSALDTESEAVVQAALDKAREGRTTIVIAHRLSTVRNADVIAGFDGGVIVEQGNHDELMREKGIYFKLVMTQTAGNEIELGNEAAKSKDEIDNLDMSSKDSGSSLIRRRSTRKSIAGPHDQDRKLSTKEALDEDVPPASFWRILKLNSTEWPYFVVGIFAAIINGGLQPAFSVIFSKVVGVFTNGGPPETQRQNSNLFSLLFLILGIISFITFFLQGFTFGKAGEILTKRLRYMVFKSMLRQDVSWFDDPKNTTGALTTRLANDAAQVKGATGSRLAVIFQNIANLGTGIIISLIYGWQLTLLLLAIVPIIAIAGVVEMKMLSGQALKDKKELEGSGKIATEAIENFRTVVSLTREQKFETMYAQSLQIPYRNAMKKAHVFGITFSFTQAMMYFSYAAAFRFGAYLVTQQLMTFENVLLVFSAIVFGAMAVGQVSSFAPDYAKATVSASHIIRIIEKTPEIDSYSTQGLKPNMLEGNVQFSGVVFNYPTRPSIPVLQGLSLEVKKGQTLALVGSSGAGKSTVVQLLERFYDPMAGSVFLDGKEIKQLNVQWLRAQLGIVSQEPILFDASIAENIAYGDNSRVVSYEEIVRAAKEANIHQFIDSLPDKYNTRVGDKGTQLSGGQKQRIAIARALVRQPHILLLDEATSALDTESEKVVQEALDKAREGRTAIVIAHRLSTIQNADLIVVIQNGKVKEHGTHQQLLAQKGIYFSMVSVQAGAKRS

Compound | Stimulated ATPase (% of DMSO) [1] | Basal ATPase (% of DMSO) [1, 4] | Intracellular accumulation in the presence versus absence of TQR (P-gp) | Transport substrate for P-gp (P-gp) | Maximum ATP binding mol SL-ANP bound/mol P-gp [2] [mol SL-ANP bound/mol P-gp] | Basal ATPase (% of DMSO) [3] | Stimulated ATPase (% of DMSO) [3] | Effect on basal ATPase ([1]; without added transport substrate, listed as 280) | Fold vs PTX ÷ 29 (DU145TXR; 3 μM inhibitor, listed as 227) [Fold] | Fold vs PTX (DU145TXR; [5]) [Fold] | Fold vs PTX ÷ 29 (DU145TXR; 5 μM inhibitor) [Fold] | Fold vs PTX (DU145TXR; 5 μM inhibitor, vs PTX alone) [Fold] | Fold vs PTX ÷ 29 (DU145TXR; 7 μM inhibitor) [Fold] | Fold vs PTX (DU145TXR; 7 μM inhibitor, vs PTX alone) [Fold] | Fold vs PTX ÷ 29 (DU145TXR; 10 μM inhibitor) [Fold] | Fold vs PTX (DU145TXR; 10 μM inhibitor, vs PTX alone) [Fold] | Fold vs PTX ÷ 29 (DU145TXR; 3 μM inhibitor, listed as 231) [Fold]
Cc1cc(C)c(-c2cc(NC(=O)CSCC(=O)NC34CC5CC(CC(C5)C3)C4)n(-c3ccccc3)n2)cc1C [SMU29-278] | 41 ± 7 % of DMSO | 78 ± 4 % of DMSO | did not show significantly different intracellular accumulations | very unlikely to be a transport substrate | 1.3 ± 0.1 | 74 ± 6 % of DMSO | 63 ± 6 % of DMSO |  |  |  |  |  |  |  |  |  | 
COc1cccc2c1C(=O)c1c(O)c3c(c(O)c1C2=O)C[C@@](O)(C(C)=O)C[C@@H]3O[C@H]1C[C@H](N)[C@H](O)[C@H](C)O1 [DNR, Daunorubicin, reference compound] |  |  | very strong cellular accumulation |  |  |  |  |  |  |  |  |  |  |  |  |  | 
Cc1cc(C)c(-c2cc(NC(=O)CSCC(=O)NC(c3ccccc3)c3ccccc3)n(-c3ccccc3)n2)cc1C [SMU29-280] | 116 ± 4 % of DMSO | 148 ± 4 % of DMSO | did not show significantly different intracellular accumulations |  | 1.6 ± 0.1 | 76 ± 8 % of DMSO | 54 ± 7 % of DMSO | stimulated basal ATPase only marginally or with no statistical significance |  |  |  |  |  |  |  |  | 
Cc1cc(C)c(-c2cc(NC(=O)CSCC(=O)Nc3ccc4ncsc4c3)n(-c3ccccc3)n2)cc1C [SMU29-255] | 123 ± 15 % of DMSO | 355 ± 7 % of DMSO | more modest, but statistically significant increases | very likely to be transport substrates | 1.9 ± 0.1 | 84 ± 9 % of DMSO | 59 ± 6 % of DMSO |  |  |  |  |  |  |  |  |  | 
COc1cc(NC(=O)CSCC(=O)Nc2cc(-c3cc(C)c(C)cc3C)nn2-c2ccccc2)cc(OC)c1OC [SMU29-238] | 194 ± 22 % of DMSO | 1143 ± 46 % of DMSO | very large and significant increase | very likely to be transport substrates | 1.2 ± 0.1 | 89 ± 7 % of DMSO | 61 ± 7 % of DMSO |  |  |  |  |  |  |  |  |  | 
Cc1cc(C)c(-c2cc(NC(=O)CSCC(=O)N3c4ccccc4CCc4ccccc43)n(-c3ccccc3)n2)cc1C [SMU29-227] | 50 ± 2 % of DMSO | 88 ± 4 % of DMSO |  |  | 1.8 ± 0.1 | 83 ± 7 % of DMSO | 62 ± 5 % of DMSO |  | 3.8 | 13 | 3.7 | 41 | 10 | 353 | 5 | 530 | 
Cc1cc(C)c(-c2cc(NC(=O)CSCC(=O)Nc3ccc4ccccc4c3)n(-c3ccccc3)n2)cc1C [SMU29-231] | 141 ± 18 % of DMSO | 70 ± 0 % of DMSO |  |  | 1.6 ± 0.1 | 70 ± 4 % of DMSO | 40 ± 3 % of DMSO |  |  | 14 | 4.2 | 46 | 3.4 | 303 | 11 | 1060 | 4.1
